Test results published in PubChem BioAssay AID1963447 (Molecular Pharmacology Branch, DTP, NCI, 2024).
Values belong to the compound of their own block, whether it stands above or below them.

Test system: 885512-296-R-J2-PDC complex spheroid growth, % test/control
Test: Anticancer human tumor 885512-296-R-J2-PDC patient-derived breast carcinoma cell line growth inhibition [Asc]
Details: for IC50: curve of first compound; for viability, T/C: stronger effect = lower value
Summary of the method: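 Stromal components (HUVEC and hMSC) are co-assembled with the cancer cells into multicellular spheroids. Drugs are then added singly or paired, at concentrations falling by half-log increments from a clinically achievable maximum, capped at 10 microM without known Cmax.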

[1] = second compound 0.01 µM, first compound 0.0316 µM
[2] = second compound 0.01 µM, first compound 0.1 µM
[3] = second compound 0.01 µM, first compound 0.316 µM
[4] = second compound 0.01 µM, first compound 1 µM
[5] = second compound 0.0316 µM, first compound 0.0316 µM
[6] = second compound 0.0316 µM, first compound 0.1 µM
[7] = second compound 0.0316 µM, first compound 0.316 µM
[8] = second compound 0.0316 µM, first compound 1 µM
[9] = second compound 0.1 µM, first compound 0.0316 µM
[10] = second compound 0.1 µM, first compound 0.1 µM
[11] = second compound 0.1 µM, first compound 0.316 µM
[12] = second compound 0.1 µM, first compound 1 µM
[13] = second compound 0.316 µM, first compound 0.0316 µM
[14] = second compound 0.316 µM, first compound 0.1 µM
[15] = second compound 0.316 µM, first compound 0.316 µM
[16] = second compound 0.316 µM, first compound 1 µM
[17] = second compound 1 µM, first compound 0.0316 µM
[18] = second compound 1 µM, first compound 0.1 µM
[19] = second compound 1 µM, first compound 0.316 µM
[20] = second compound 1 µM, first compound 1 µM
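Further: spheroids exposed to compounds for seven days.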
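Wherever viability, T/C is given: 100% = DMSO vehicle control wells.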

- IC50 (second compound 0.01 µM): > 10000 nM
- IC50 (second compound 0.0316 µM): > 10000 nM
- IC50 (second compound 0.1 µM): > 10000 nM
- IC50 (second compound 0.316 µM): > 10000 nM
- IC50 (second compound 1 µM): > 10000 nM
Structure (SMILES): C=CC(=O)N1CCN(c2nc(=O)n(-c3c(C)ccnc3C(C)C)c3nc(-c4c(O)cccc4F)c(F)cc23)C(C)C1 (stereo not given) + CNC(C)C(=O)NC1CN(S(=O)(=O)c2cccc(S(=O)(=O)N3CCC4CCC(C(=O)NC(c5ccccc5)c5ccccc5)N4C(=O)C(NC(=O)C(C)NC)C3)c2)CCC2CCC(C(=O)NC(c3ccccc3)c3ccccc3)N2C1=O
- viability, T/C [1]: 88.2%
- viability, T/C [2]: 80.9%
- viability, T/C [3]: 101%
- viability, T/C [4]: 81.3%
- viability, T/C (second compound 0.01 µM, first compound 3.16 µM): 90.6%
- viability, T/C (second compound 0.01 µM, first compound 10 µM): 64.2%
- viability, T/C [5]: 90.3%
- viability, T/C [6]: 104%
- viability, T/C [7]: 96.6%
- viability, T/C [8]: 97.2%
- viability, T/C (second compound 0.0316 µM, first compound 3.16 µM): 92.6%
- viability, T/C (second compound 0.0316 µM, first compound 10 µM): 68.5%
- viability, T/C [9]: 111%
- viability, T/C [10]: 109%
- viability, T/C [11]: 98%
- viability, T/C [12]: 98.6%
- viability, T/C (second compound 0.1 µM, first compound 3.16 µM): 87.7%
- viability, T/C (second compound 0.1 µM, first compound 10 µM): 66.8%
- viability, T/C [13]: 104%
- viability, T/C [14]: 106%
- viability, T/C [15]: 98.8%
- viability, T/C [16]: 100%
- viability, T/C (second compound 0.316 µM, first compound 3.16 µM): 84.4%
- viability, T/C (second compound 0.316 µM, first compound 10 µM): 68.6%
- viability, T/C [17]: 105%
- viability, T/C [18]: 103%
- viability, T/C [19]: 104%
- viability, T/C [20]: 109%
- viability, T/C (second compound 1 µM, first compound 3.16 µM): 79.2%
- viability, T/C (second compound 1 µM, first compound 10 µM): 59%

- IC50 (second compound 0.01 µM): > 3000 nM
- IC50 (second compound 0.0316 µM): 2970 nM
- IC50 (second compound 0.1 µM): > 3000 nM
- IC50 (second compound 0.316 µM): > 3000 nM
- IC50 (second compound 1 µM): > 3000 nM
Structure (SMILES): CCN1C(C(=O)NC23CCC(C(=O)O)(CC2)CC3)C(c2cccc(Cl)c2F)C2(C(=O)Nc3cc(Cl)ccc32)C12CCCCC2 (stereo not given) + CNC(C)C(=O)NC1CN(S(=O)(=O)c2cccc(S(=O)(=O)N3CCC4CCC(C(=O)NC(c5ccccc5)c5ccccc5)N4C(=O)C(NC(=O)C(C)NC)C3)c2)CCC2CCC(C(=O)NC(c3ccccc3)c3ccccc3)N2C1=O
- viability, T/C (second compound 0.01 µM, first compound 0.00949 µM): 85.2%
- viability, T/C (second compound 0.01 µM, first compound 0.03 µM): 77.7%
- viability, T/C (second compound 0.01 µM, first compound 0.0949 µM): 87%
- viability, T/C (second compound 0.01 µM, first compound 0.3 µM): 84%
- viability, T/C (second compound 0.01 µM, first compound 0.949 µM): 67%
- viability, T/C (second compound 0.01 µM, first compound 3 µM): 53.5%
- viability, T/C (second compound 0.0316 µM, first compound 0.00949 µM): 103%
- viability, T/C (second compound 0.0316 µM, first compound 0.03 µM): 98.3%
- viability, T/C (second compound 0.0316 µM, first compound 0.0949 µM): 88.7%
- viability, T/C (second compound 0.0316 µM, first compound 0.3 µM): 97.2%
- viability, T/C (second compound 0.0316 µM, first compound 0.949 µM): 84.7%
- viability, T/C (second compound 0.0316 µM, first compound 3 µM): 49.4%
- viability, T/C (second compound 0.1 µM, first compound 0.00949 µM): 98.7%
- viability, T/C (second compound 0.1 µM, first compound 0.03 µM): 107%
- viability, T/C (second compound 0.1 µM, first compound 0.0949 µM): 108%
- viability, T/C (second compound 0.1 µM, first compound 0.3 µM): 104%
- viability, T/C (second compound 0.1 µM, first compound 0.949 µM): 77.2%
- viability, T/C (second compound 0.1 µM, first compound 3 µM): 51.7%
- viability, T/C (second compound 0.316 µM, first compound 0.00949 µM): 104%
- viability, T/C (second compound 0.316 µM, first compound 0.03 µM): 103%
- viability, T/C (second compound 0.316 µM, first compound 0.0949 µM): 111%
- viability, T/C (second compound 0.316 µM, first compound 0.3 µM): 97.9%
- viability, T/C (second compound 0.316 µM, first compound 0.949 µM): 86%
- viability, T/C (second compound 0.316 µM, first compound 3 µM): 57.8%
- viability, T/C (second compound 1 µM, first compound 0.00949 µM): 104%
- viability, T/C (second compound 1 µM, first compound 0.03 µM): 118%
- viability, T/C (second compound 1 µM, first compound 0.0949 µM): 111%
- viability, T/C (second compound 1 µM, first compound 0.3 µM): 101%
- viability, T/C (second compound 1 µM, first compound 0.949 µM): 90%
- viability, T/C (second compound 1 µM, first compound 3 µM): 60.3%

- IC50 (second compound 0.01 µM): 358 nM
- IC50 (second compound 0.0316 µM): 394 nM
- IC50 (second compound 0.1 µM): 387 nM
- IC50 (second compound 0.316 µM): 410 nM
- IC50 (second compound 1 µM): 343 nM
Structure (SMILES): COc1c(OCCCN2CCOCC2)ccc2c3n(c(=NC(=O)c4cnc(N)nc4)nc12)CCN3 + CNC(C)C(=O)NC1CN(S(=O)(=O)c2cccc(S(=O)(=O)N3CCC4CCC(C(=O)NC(c5ccccc5)c5ccccc5)N4C(=O)C(NC(=O)C(C)NC)C3)c2)CCC2CCC(C(=O)NC(c3ccccc3)c3ccccc3)N2C1=O
- viability, T/C (second compound 0.01 µM, first compound 0.00316 µM): 85.2%
- viability, T/C (second compound 0.01 µM, first compound 0.01 µM): 86.4%
- viability, T/C [1]: 79.6%
- viability, T/C [2]: 88.2%
- viability, T/C [3]: 55.1%
- viability, T/C [4]: 7.8%
- viability, T/C (second compound 0.0316 µM, first compound 0.00316 µM): 98.4%
- viability, T/C (second compound 0.0316 µM, first compound 0.01 µM): 92.1%
- viability, T/C [5]: 89.3%
- viability, T/C [6]: 85.3%
- viability, T/C [7]: 59.3%
- viability, T/C [8]: 8.15%
- viability, T/C (second compound 0.1 µM, first compound 0.00316 µM): 104%
- viability, T/C (second compound 0.1 µM, first compound 0.01 µM): 98.6%
- viability, T/C [9]: 86.3%
- viability, T/C [10]: 81.8%
- viability, T/C [11]: 61.5%
- viability, T/C [12]: 8.94%
- viability, T/C (second compound 0.316 µM, first compound 0.00316 µM): 89.5%
- viability, T/C (second compound 0.316 µM, first compound 0.01 µM): 93.2%
- viability, T/C [13]: 97.4%
- viability, T/C [14]: 83.6%
- viability, T/C [15]: 62.6%
- viability, T/C [16]: 7.92%
- viability, T/C (second compound 1 µM, first compound 0.00316 µM): 102%
- viability, T/C (second compound 1 µM, first compound 0.01 µM): 105%
- viability, T/C [17]: 99.8%
- viability, T/C [18]: 79%
- viability, T/C [19]: 54.5%
- viability, T/C [20]: 8.06%
